Legend:
[1] = test system: isolated liver mitochondria; assay: Mitochondrial respiration, Clark-type oxygen electrode, isolated liver mitochondria; design: species or system rat; conditions: for reduction of respiration: tissue not specified
Method: Mitochondrial respiration was measured before and after CO gas exposure in a Clark-type oxygen electrode respirometry system. The effects of infusion of both reduced hemoglobin and myoglobin were evaluated. Fresh liver was collected from a normal rat, and mitochondria were isolated through differential centrifugation. For left ventricle (LV) tissue, fresh LV was collected from a normal rat and then homogenized. The resulting mitochondria and LV tissue was put into the Clark-type electrode air tight reaction chamber, then substrates (succinate (mitochondria) or malate and pyruvate (LV) and ADP) were added. Mitochondria respired to 0% oxygen and then the system was reoxygenated with a pipetted injection of room air. Mitochondria respired back down to the desired 02 concentration. At this point, CO was added, either in gas form or saturated PBS solution. The system was then reoxygenated, and respiration occurred down to 0%. These rates of respiration were compared with pre-CO exposure. The reason for the first reoxygenation step was to more equally compare rates of mitochondria that have experienced some hypoxia, which can damage their function. After this was completed, CO scavenging agents were added, the system was reoxygenated and this final rate of respiration was compared both to pre-CO and post-CO respiration.
CO was then infused, the system was reoxygenated, and rates of respiration were compared. After respiration to 0% 02, myoglobin was infused, the system was reoxygenated and the rates were compared.
CO poisoning has long term effects on patients, and one theory is the poisoning of mitochondria leads to generation of increased reactive oxygen species (ROS) through the inhibition of complex IV of the electron transport chain. A model to measure the amount of inhibition produced by CO exposure and quantify it through respiratory rates was developed. In a Clark electrode, the oxygen respiration of isolated mitochondria from rat livers and left ventricle (LV) homogenate was measured, with the addition of the substrates succinate and ADP to measure maximal respiration. […] This effect was stronger in more hypoxic states, consistent with the known competition between CO and O2 for binding at the heme in cytochrome c oxidase (62% reduction in hypoxia versus ˜50% in normoxia).

[2] = test system: LV homogenate; assay: Cardiac tissue respiration, Clark-type oxygen electrode, LV homogenate; design: species or system rat
Method: Mitochondrial respiration was measured before and after CO gas exposure in a Clark-type oxygen electrode respirometry system. The effects of infusion of both reduced hemoglobin and myoglobin were evaluated. Fresh liver was collected from a normal rat, and mitochondria were isolated through differential centrifugation. For left ventricle (LV) tissue, fresh LV was collected from a normal rat and then homogenized. The resulting mitochondria and LV tissue was put into the Clark-type electrode air tight reaction chamber, then substrates (succinate (mitochondria) or malate and pyruvate (LV) and ADP) were added. Mitochondria respired to 0% oxygen and then the system was reoxygenated with a pipetted injection of room air. Mitochondria respired back down to the desired 02 concentration. […]
CO poisoning has long term effects on patients, and one theory is the poisoning of mitochondria leads to generation of increased reactive oxygen species (ROS) through the inhibition of complex IV of the electron transport chain. A model to measure the amount of inhibition produced by CO exposure and quantify it through respiratory rates was developed. In a Clark electrode, the oxygen respiration of isolated mitochondria from rat livers and left ventricle (LV) homogenate was measured, with the addition of the substrates succinate and ADP to measure maximal respiration. […]

[3] = cited from earlier work; for Kd: CO; for kon: rate of CO binding; for koff: rate of CO dissociation
[4] = test system: mice exposed to 30,000 ppm (3%) CO gas; assay: Severe CO poisoning mouse model: survival and hemodynamics; type: in vivo; conditions: for effect on hemodynamic collapse (heart rate, mean arterial blood pressure) induced by CO: infusion after 4.5 minutes of 3% CO; for mortality: 3% CO 4.5 minutes
Method: To establish a model for cardiovascular and mortality end points, tracheally intubated, ventilated, anesthetized mice were exposed to 30,000 ppm (3%) CO gas, with 21% oxygen and 1.5% isoflurane for 4.5 minutes. Mice were surgically instrumented with placement of jugular venous (for infusion of drug) and carotid arterial (for blood pressure and heart rate monitoring) catheters. In this model, there was 88.2% (15/17) mortality in a group infused with 300 μL of PBS post exposure, while all mice that received an infusion of 11 mM myoglobin survived (0% mortality; n=5). Survival of mice infused with myoglobin was due to the reversal in hemodynamic collapse and bradycardia induced by CO (FIG. 5).
(§1) Tracheally intubated, ventilated, anesthetized mice were exposed to 30,000 ppm (3%) CO gas, with 21% oxygen and 1.5% isoflurane for 4.5 minutes. Mice were surgically instrumented with placement of jugular venous (for infusion of drug) and carotid arterial (for blood pressure and heart rate monitoring) catheters. In this model, all mice that received PEG-Hb (n=3) survived. The concentration infused was 10 mM at approximately 200 to 250 microliters volume.

[5] = test system: HbCO; assay: Severe CO poisoning mouse model: HbCO level by spectrometry; type: in vivo, mice
Method: To establish a model for cardiovascular and mortality end points, tracheally intubated, ventilated, anesthetized mice were exposed to 30,000 ppm (3%) CO gas, with 21% oxygen and 1.5% isoflurane for 4.5 minutes. Mice were surgically instrumented with placement of jugular venous (for infusion of drug) and carotid arterial (for blood pressure and heart rate monitoring) catheters.
(§2) Through the jugular venous catheter, the HbCO level was sampled using spectrometry. […] Mouse half-life for CO is much faster than for humans.
as §1, with “In this model, all mice that received PEG-Hb (n=3) survived.” left out
as §2

[6] = Safety of oxygen carriers in healthy mice; type: in vivo; conditions: for tolerability of infusion: retro-orbital injection, 8-12 mM, observed for 48 hours; for blood chemistries: serum at 48 hours; for hematology profile: whole blood at 48 hours
Method: Healthy mice were anesthetized with 3% isoflurane gas and myoglobin and hemoglobin were injected into the retro-orbital space. […] At 48 hours, the animals were sacrificed, their serum was analyzed for blood chemistries and whole blood was tested for complete blood count.

[7] = test system: HbCO; assay: In vitro model of CO poisoning: CO scavenging from HbCO / carboxylated RBCs; type: biochemical
Method: FIGS. 4A-4C are graphs showing the in vitro binding of CO from hemoglobin by wild type equine myoglobin. PBS or myoglobin (100 μL) was infused into a solution containing carboxylated red blood cells in the presence of 5 mM sodium dithionite at 37° C. Samples were taken from the reaction mixture at several time points and the RBCs were separated from the supernatant (containing the Mb) by centrifugation. The amount of HbCO/MbCO in each fraction was determined by UV-vis spectroscopy. (FIG. 4A) Carboxylated RBCs mixed with PBS. (FIG. 4B and FIG. 4C) Two sample experiments where different amounts of carboxylated RBCs were mixed with Mb. […]
Oxygenated or deoxygenated myoglobin (Mb) was prepared following the same procedure as that described for the experiments with pure Hb. In some experiments, after initiating the reaction, red cells were separated from Mb to measure absorbance spectra. […] Hb absorbance in the lysed RBC solution was measured with the Cary 50 spectrophotometer in a 1 cm path length cuvette. This cycle was repeated six times, each 1.5-5 minutes, giving six absorbance measurements of the Hb. […] The time when absorbance of hemoglobin was measured in the reaction was assumed to be the time elapsed after injection of Mb to 15 or 30 seconds after the start of centrifugation (for 30 or 60 second centrifugation durations, respectively). […]

Q: For `[C-]#[O+]` [CO, carbon monoxide], which “decrease of respiration from pre-CO (maximal) respiration” value ([1]; CO gas versus room air) is on record?
A: The value was 60.5%.

Q: What about the reduction of respiration ([1]; hypoxia) of the same molecule?
A: The reduction of respiration was 62%.

Q: What about the reduction of respiration ([1]; normoxia) of the same molecule?
A: Its reduction of respiration is ~50%.

Q: What about the “decrease of respiration from pre-CO (maximal) respiration” value ([2]; CO gas versus air) of the same molecule?
A: The value was 75.6%.

Q: With “Human Hb (alpha subunit, R-state): human hemoglobin alpha subunit, R-state” as the molecule, how does the Kd [3] read?
A: The Kd was 2 nM.

Q: And the kon [3]?
A: Its kon is 6e+06 M⁻¹ s⁻¹.

Q: What about the koff [3] of the same molecule?
A: Its koff is 0.012 s⁻¹.

Q: Which Kd [3] does the source give for “Human Hb (alpha subunit, T-state): human hemoglobin alpha subunit, T-state” here?
A: Its Kd is 1750 nM.

Q: And the kon [3]?
A: Its kon is 120000 M⁻¹ s⁻¹.

Q: And the koff [3]?
A: The koff was 0.21 s⁻¹.

Q: Which Kd [3] does the source give for “Human Hb (beta subunit, R-state): human hemoglobin beta subunit, R-state” here?
A: Its Kd is 0.946 nM.

Q: And the kon [3]?
A: The kon was 7.4e+06 M⁻¹ s⁻¹.

Q: What about the koff [3] of the same molecule?
A: The koff was 0.007 s⁻¹.

Q: What does the source list for “Human Hb (beta subunit, T-state): human hemoglobin beta subunit, T-state”?
A: Kd [3]: 3800 nM; kon [3]: 50000 M⁻¹ s⁻¹; koff [3]: 0.19 s⁻¹

Q: What does the source list for “PEG-Hb: surface conjugation of polyethylene glycol to human hemoglobin; artificial oxygen carrier”?
A: survival ([4]; 10 mM, approximately 200 to 250 microliters, n=3): survived; effect on hemodynamic collapse (heart rate, mean arterial blood pressure) induced by CO [4]: restored; HbCO level ([5]; five minutes after infusion, Example 9): 66%; HbCO level ([5]; ten minutes after treatment, Example 9): 62%

Q: With “hemoglobin: hemoglobin, natural oxygen carrier, infused in reduced (deoxy) form as CO scavenger” as the molecule, how does the survival ([4]; infused with <4 mM) read?
A: Its survival is “died”.

Q: And the survival ([4]; infused with ≥4 mM)?
A: Its survival is “all survived”.

Q: And the “effect on hemodynamic collapse (heart rate, mean arterial blood pressure) induced by CO” value [4]?
A: The value was “reversed”.

Q: What about the tolerability of infusion [6] of the same molecule?
A: The tolerability of infusion was “well tolerated”.

Q: What about the blood chemistries [6] of the same molecule?
A: Its blood chemistries is “normal kidney and liver function”.

Q: And the hematology profile [6]?
A: The hematology profile was “only a slight decline in platelets”.

Q: And the “increase of respiration from the CO inhibited rate” value ([1]; 0.5 equimolar, after CO gas)?
A: Its value is 95%.

B1: Equine Myoglobin: wild type equine myoglobin, natural oxygen carrier, used in reduced (deoxy) form as CO scavenger (protein, UniProt P68082 2-154, looked up)
Myoglobin: GLSDGEWQQVLNVWGKVEADIAGHGQEVLIRLFTGHPETLEKFDKFKHLKTEAEMKASEDLKKHGTVVLTALGGILKKKGHHEAELKPLAQSHATKHKIPIKYLEFISDAIIHVLHSKHPGDFGADAQGAMTKALELFRNDIAAKYKELGFQG
modifications: deoxy form
notes: wild type equine myoglobin, natural oxygen carrier, used in reduced (deoxy) form as CO scavenger
Q: What does the source list for B1?
A: HbCO reduced, CO bound by myoglobin ([7]; 100% HbCO, anaerobic, added in a 1:1 ratio): more than half; HbCO concentration reduced ([7]; added in deficit: 110.8 μM HbCO versus 85.3 μM deoxy-myoglobin): one third; survival ([4]; concentration greater than 11 mM, n=10): 100%; survival ([4]; concentrations less than 11 mM, n=4): 0%; concentration needed to reverse the hemodynamic collapse induced by severe CO poisoning ([4]; infused concentration): greater than 11 mM; effect on hemodynamic collapse (heart rate, mean arterial blood pressure) induced by CO [4]: reversal; effect on hemodynamic collapse (heart rate, mean arterial blood pressure) induced by CO ([4]; listed as reduced myoglobin): restoration; mortality ([4]; infusion of 11 mM, n=5): 0%; mortality ([4]; infusion of 300 μL of 11.5 mM reduced form): 0%; HbCO level ([5]; five minutes after infusion, Example 4): 65.04%; HbCO level ([5]; ten minutes after treatment, Example 4): 52.8%; tolerability of infusion [6]: well tolerated; blood chemistries [6]: normal kidney and liver function; hematology profile [6]: only a slight decline in platelets; increase of respiration from the CO inhibited rate ([2]; 0.5 equimolar, after CO gas): 199%; affinity for CO relative to oxygen ([3]; CO versus O2): 60 fold; Kd [3]: 68.8 nM; kon [3]: 510000 M⁻¹ s⁻¹; koff [3]: 0.035 s⁻¹

— patent publication US12251427B2, “Reduced oxygen carriers and their use for the treatment of carboxyhemoglobinemia” (priority 2016, dated 2025)
